According to ChEMBL document CHEMBL2029340 (J Med Chem, 2012):
Activity calls are given as the source filed them. No cut-off for these calls is given here.

Assays:
Influenza A virus [1] = experiment: Antiviral activity against Influenza A virus A/HK/8/68(H3N2) infected in MDCK cells assessed as inhibition of virus-induced cytopathic effects after 3 days by CCK-8 assay; format: functional, organism-based; details: 72 h
[2] = Cytotoxicity against MDCK cells after 3 days by CCK-8 assay; format: cell-based, Canis lupus familiaris; details: dog
Influenza A virus [3] = experiment: Antiviral activity against Influenza A virus A/Guangzhou/2009 (H1N1) infected in MDCK cells assessed as inhibition of virus-induced cytopathic effects after 3 days by CCK-8 assay; format: functional, organism-based; details: 72 h
Influenza A virus [4] = experiment: Antiviral activity against Influenza A virus […] infected in MDCK cells assessed as inhibition of virus-induced cytopathic effects after 3 days by CCK-8 assay; format: functional, organism-based; details: 72 h
Influenza A virus [5] = experiment: Antiviral activity against Influenza A virus A/Weiss/43 (H1N1) infected in MDCK cells assessed as inhibition of virus-induced cytopathic effects after 3 days by CCK-8 assay; format: functional, organism-based, Influenza A virus (A/Weiss/1943(H1N1)); details: 72 h
Influenza A virus [6] = experiment: Antiviral activity against Influenza A virus A/Mal/302/54 (H1N1) infected in MDCK cells assessed as inhibition of virus-induced cytopathic effects after 3 days by CCK-8 assay; format: functional, organism-based; details: 72 h
Influenza A virus [7] = experiment: Antiviral activity against Influenza A virus A/Brisbane/10/2007 (H3N2) infected in MDCK cells assessed as inhibition of virus-induced cytopathic effects after 3 days by CCK-8 assay; format: functional, organism-based; details: 72 h
Influenza A virus [8] = experiment: Antiviral activity against Influenza A virus A/udorn/1972 (H3N2) infected in MDCK cells assessed as inhibition of virus-induced cytopathic effects after 3 days by CCK-8 assay; format: functional, organism-based; details: 72 h
Influenza A virus [9] = experiment: Antiviral activity against Influenza A virus A/Guangdong/96 (H9N2) infected in MDCK cells assessed as inhibition of virus-induced cytopathic effects after 3 days by CCK-8 assay; format: functional, organism-based; details: 72 h
Influenza A virus [10] = experiment: Antiviral activity against Influenza A virus A/WSN/33 (H1N1) infected in MDCK cells assessed as inhibition of nucleoprotein accumulation in nucleus at 10 uM after 4 hrs by fluorescent microscopy; format: functional, organism-based; details: A/WSN/1933(H1N1)

Compound	IC50 (Influenza A virus [1])	CC50 at 72 h [2]	also measured
COc1ccccc1-n1nnc(C)c1C(=O)N1CCN(c2ccc([N+](=O)[O-])cc2Cl)CC1	1.97 µM	> 100 µM	IC50 (Influenza A virus [3]): 0.52 µM; IC50 (Influenza A virus [4]): 1.86 µM; IC50 (Influenza A virus [5]): 0.66 µM; IC50 (Influenza A virus [6]): 0.9 µM; IC50 (Influenza A virus [7]): > 50 µM; IC50 (Influenza A virus [8]): 1.17 µM; IC50 (Influenza A virus [9]): 4.62 µM; inhibition (Influenza A virus [10]): Active
COc1ccccc1-n1nnc(C)c1C(=O)N1CCN(c2ccc([N+](=O)[O-])cc2)CC1	> 50 µM	> 100 µM	
COc1cccc(-n2nnc(C)c2C(=O)N2CCN(c3ccc([N+](=O)[O-])cc3Cl)CC2)c1	13.8 µM	> 100 µM	
CCc1nnn(-c2ccccc2OC)c1C(=O)N1CCN(c2ccc([N+](=O)[O-])cc2Cl)CC1	> 50 µM	> 100 µM	
CCOc1ccccc1-n1nnc(C)c1C(=O)N1CCN(c2ccc([N+](=O)[O-])cc2Cl)CC1	8.97 µM	> 100 µM	
COc1ccccc1-n1nnc(C)c1C(=O)N1CCCN(c2ccc([N+](=O)[O-])cc2Cl)CC1	> 50 µM	> 100 µM	
Cc1nnn(-c2ccc(Cl)cc2)c1C(=O)N1CCN(c2ccc([N+](=O)[O-])cc2Cl)CC1	> 50 µM	> 100 µM	
COc1ccccc1-n1nnc(C)c1C(=O)N1CCN(c2ccccc2)CC1	> 50 µM	> 100 µM	
Cc1ccccc1-n1nnc(C)c1C(=O)N1CCN(c2ccc([N+](=O)[O-])cc2Cl)CC1	4.92 µM	> 100 µM	
COc1ccccc1-n1nnc(C)c1C(=O)N1CCN(c2ccccc2Cl)CC1	> 50 µM	> 100 µM	
Cc1onc(-c2ccccc2)c1C(=O)N1CCN(c2ccc([N+](=O)[O-])cc2Cl)CC1 [NUCLEOZIN]	1.08 µM	15.9 µM	IC50 (Influenza A virus [3]): 0.54 µM; IC50 (Influenza A virus [4]): 1.59 µM; IC50 (Influenza A virus [5]): 0.2 µM; IC50 (Influenza A virus [6]): 0.52 µM; IC50 (Influenza A virus [7]): 12.4 µM; IC50 (Influenza A virus [8]): 0.34 µM; IC50 (Influenza A virus [9]): 3.87 µM
CC(=O)c1ccccc1-n1nnc(C)c1C(=O)N1CCN(c2ccc([N+](=O)[O-])cc2Cl)CC1	14.8 µM	> 100 µM	
O=C(c1ccccc1-c1ccccc1)N1CCN(c2ccc([N+](=O)[O-])cc2Cl)CC1	7.61 µM		
Cc1[nH]nc(-c2ccccc2)c1C(=O)N1CCN(c2ccc([N+](=O)[O-])cc2Cl)CC1	8.64 µM		
COc1cc([N+](=O)[O-])ccc1N1CCN(C(=O)c2c(C)nnn2-c2ccccc2OC)CC1	> 50 µM	> 100 µM	
Cc1[nH]nc(-c2ccccc2Cl)c1C(=O)N1CCN(c2ccc([N+](=O)[O-])cc2Cl)CC1	2.87 µM		
COc1ccc(-n2nnc(C)c2C(=O)N2CCN(c3ccc([N+](=O)[O-])cc3Cl)CC2)cc1	14.7 µM	> 100 µM	
Cc1nnn(-c2ccccc2Cl)c1C(=O)N1CCN(c2ccc([N+](=O)[O-])cc2Cl)CC1	5.65 µM	> 100 µM	
Cc1nnn(-c2ccccc2O)c1C(=O)N1CCN(c2ccc([N+](=O)[O-])cc2Cl)CC1	7.84 µM	> 100 µM	
Cc1noc(-c2ccccc2)c1C(=O)N1CCN(c2ccc([N+](=O)[O-])cc2Cl)CC1	6 µM		
NC12CC3CC(CC(C3)C1)C2 [AMANTADINE]	2.22 µM	> 100 µM	
COc1cccc(OC)c1-n1nnc(C)c1C(=O)N1CCN(c2ccc([N+](=O)[O-])cc2Cl)CC1	2.42 µM	> 100 µM	
COc1ccccc1-c1onc(C)c1C(=O)N1CCN(c2ccc([N+](=O)[O-])cc2Cl)CC1	2.62 µM		
COc1ccccc1-c1ccccc1C(=O)N1CCN(c2ccc([N+](=O)[O-])cc2Cl)CC1	3.68 µM		
Cc1nnn(-c2cccc(Cl)c2)c1C(=O)N1CCN(c2ccc([N+](=O)[O-])cc2Cl)CC1	9.38 µM	> 100 µM	
Cc1nnn(-c2ccccc2OC(C)C)c1C(=O)N1CCN(c2ccc([N+](=O)[O-])cc2Cl)CC1	16.2 µM	> 100 µM	
COc1ccccc1-n1nncc1C(=O)N1CCN(c2ccc([N+](=O)[O-])cc2Cl)CC1	> 50 µM	> 100 µM	
Cc1nnn(-c2ccccc2)c1C(=O)N1CCN(c2ccc([N+](=O)[O-])cc2Cl)CC1	5.16 µM	> 100 µM	
